Consider 1 molecule from ChEMBL document CHEMBL1121747, “Side-chain effects on phenothiazine cation radical reactions” (J Med Chem, 1981).

The series in a line: Dissociation constant was reported. It counts as physicochemical.

Molecule `CN(C)CCN1c2ccccc2Sc2ccc(Cl)cc21` [CHOLRPHENETHAZINE] displayed a pKa of 9.1.

In general, pKa refers to the negative logarithm of the acid dissociation constant. A higher pKa goes with a weaker acid or stronger base.
